Assay [1] in a line: Inhibition of Neisseria meningitidis APN.
The next assay has as its target T1, Leucine aminopeptidase (Plasmodium falciparum 3D7, UniProt Q8IL11).
T1 sequence (Q8IL11 whole entry): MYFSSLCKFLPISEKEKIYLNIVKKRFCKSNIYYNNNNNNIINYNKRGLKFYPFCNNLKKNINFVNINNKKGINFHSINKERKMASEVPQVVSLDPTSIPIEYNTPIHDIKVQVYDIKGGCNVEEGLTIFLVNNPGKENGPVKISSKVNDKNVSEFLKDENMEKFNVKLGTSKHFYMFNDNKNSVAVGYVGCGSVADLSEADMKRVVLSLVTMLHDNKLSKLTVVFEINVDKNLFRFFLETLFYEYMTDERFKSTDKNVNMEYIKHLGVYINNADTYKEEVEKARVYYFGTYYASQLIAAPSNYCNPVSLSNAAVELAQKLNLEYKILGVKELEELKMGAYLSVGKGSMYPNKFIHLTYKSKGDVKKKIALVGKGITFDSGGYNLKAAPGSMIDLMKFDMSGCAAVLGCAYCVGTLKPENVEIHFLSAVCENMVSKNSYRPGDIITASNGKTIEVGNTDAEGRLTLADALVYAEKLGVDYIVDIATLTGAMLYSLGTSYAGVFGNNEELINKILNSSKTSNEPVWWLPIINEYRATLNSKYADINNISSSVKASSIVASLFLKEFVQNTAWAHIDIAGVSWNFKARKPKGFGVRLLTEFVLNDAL
Put plainly: Inhibition of Plasmodium falciparum LAP.

The target of assay [2] is T2, Macrophage metalloelastase (Homo sapiens, UniProt P39900). Put plainly: Inhibition of human MMP12.
The next assay addresses Neutrophil collagenase (Homo sapiens, UniProt P22894). Nature of the assay: Inhibition of human MMP8 by photoaffinity probe based assay.
For assay [3], the target named is T2, Macrophage metalloelastase. Nature of the assay: Inhibition of human MMP12 by photoaffinity probe based assay.
In assay [4] the target is 72 kDa type IV collagenase (Homo sapiens, UniProt P08253). Nature of the assay: Inhibition of human MMP2 by photoaffinity probe based assay.
The next assay deals with Collagenase 3 (Homo sapiens, UniProt P45452). Nature of the assay: Inhibition of human MMP13 by photoaffinity probe based assay.
The target in assay [5] is Matrix metalloproteinase-9 (Homo sapiens, UniProt P14780). Put plainly: Inhibition of human MMP9 by photoaffinity probe based assay.
The target in assay [6] is T3, Leukotriene A-4 hydrolase (Homo sapiens, UniProt P09960).
T3 sequence (P09960 whole entry): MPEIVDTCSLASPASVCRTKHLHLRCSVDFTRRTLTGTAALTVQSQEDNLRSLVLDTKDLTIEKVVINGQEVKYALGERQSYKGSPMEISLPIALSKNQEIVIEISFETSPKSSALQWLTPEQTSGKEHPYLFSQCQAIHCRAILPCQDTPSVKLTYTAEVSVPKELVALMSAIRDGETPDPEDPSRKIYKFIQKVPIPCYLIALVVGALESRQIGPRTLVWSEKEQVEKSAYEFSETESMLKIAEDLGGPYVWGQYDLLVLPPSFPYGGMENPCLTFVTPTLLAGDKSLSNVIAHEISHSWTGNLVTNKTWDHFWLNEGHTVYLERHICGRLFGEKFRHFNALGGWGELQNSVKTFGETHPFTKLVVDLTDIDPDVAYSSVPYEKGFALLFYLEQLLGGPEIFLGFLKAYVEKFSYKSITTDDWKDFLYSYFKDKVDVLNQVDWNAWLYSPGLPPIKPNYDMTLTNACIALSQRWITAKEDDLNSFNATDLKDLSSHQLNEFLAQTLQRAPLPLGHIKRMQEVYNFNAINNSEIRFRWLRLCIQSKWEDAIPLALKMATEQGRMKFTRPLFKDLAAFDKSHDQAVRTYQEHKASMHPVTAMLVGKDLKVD
Nature of the assay: Inhibition of human recombinant LTA4H by L-(4-benzoyl)phenylalanyl-beta-naphthylamide fluorigenic substrate by fluorescence based assay.

The nature of assay [7]: Inhibition of Helicobacter pylori Csd4.
Assay [8] is described as follows: Inhibition of Plasmodium falciparum APN.

T2 sequence (P39900 whole entry): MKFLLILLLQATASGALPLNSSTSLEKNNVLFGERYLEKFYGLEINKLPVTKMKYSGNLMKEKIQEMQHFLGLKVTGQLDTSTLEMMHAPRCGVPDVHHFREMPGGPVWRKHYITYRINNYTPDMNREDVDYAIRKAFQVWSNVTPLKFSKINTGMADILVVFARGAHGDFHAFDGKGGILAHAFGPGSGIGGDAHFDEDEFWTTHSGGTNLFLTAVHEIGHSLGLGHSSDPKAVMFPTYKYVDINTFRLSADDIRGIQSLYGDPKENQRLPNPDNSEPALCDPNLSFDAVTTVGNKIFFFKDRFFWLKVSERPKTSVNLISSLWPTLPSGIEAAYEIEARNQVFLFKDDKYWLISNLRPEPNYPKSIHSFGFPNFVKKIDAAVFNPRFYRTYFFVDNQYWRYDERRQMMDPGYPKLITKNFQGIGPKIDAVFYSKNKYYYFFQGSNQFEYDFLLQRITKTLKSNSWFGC
Matrix metalloproteinase-9, sequence (P14780 whole entry): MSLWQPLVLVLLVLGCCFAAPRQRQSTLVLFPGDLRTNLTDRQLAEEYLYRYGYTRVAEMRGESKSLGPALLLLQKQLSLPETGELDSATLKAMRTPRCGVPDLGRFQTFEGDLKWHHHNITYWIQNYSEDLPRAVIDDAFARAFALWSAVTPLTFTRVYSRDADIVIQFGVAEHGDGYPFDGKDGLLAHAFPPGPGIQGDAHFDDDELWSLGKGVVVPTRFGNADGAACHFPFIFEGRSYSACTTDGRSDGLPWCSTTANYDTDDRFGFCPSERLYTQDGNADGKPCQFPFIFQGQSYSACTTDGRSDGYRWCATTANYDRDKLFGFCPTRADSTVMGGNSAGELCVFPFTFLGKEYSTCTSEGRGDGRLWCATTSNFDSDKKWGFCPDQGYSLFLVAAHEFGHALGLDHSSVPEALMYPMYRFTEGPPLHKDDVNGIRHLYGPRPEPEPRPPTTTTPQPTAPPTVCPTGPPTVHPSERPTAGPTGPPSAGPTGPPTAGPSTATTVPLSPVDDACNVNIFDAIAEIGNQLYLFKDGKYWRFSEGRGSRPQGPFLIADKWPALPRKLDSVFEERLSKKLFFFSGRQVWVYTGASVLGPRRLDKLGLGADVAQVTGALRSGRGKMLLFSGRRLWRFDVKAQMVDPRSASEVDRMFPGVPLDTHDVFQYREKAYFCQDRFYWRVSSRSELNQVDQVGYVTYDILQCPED
Neutrophil collagenase, sequence (P22894 whole entry): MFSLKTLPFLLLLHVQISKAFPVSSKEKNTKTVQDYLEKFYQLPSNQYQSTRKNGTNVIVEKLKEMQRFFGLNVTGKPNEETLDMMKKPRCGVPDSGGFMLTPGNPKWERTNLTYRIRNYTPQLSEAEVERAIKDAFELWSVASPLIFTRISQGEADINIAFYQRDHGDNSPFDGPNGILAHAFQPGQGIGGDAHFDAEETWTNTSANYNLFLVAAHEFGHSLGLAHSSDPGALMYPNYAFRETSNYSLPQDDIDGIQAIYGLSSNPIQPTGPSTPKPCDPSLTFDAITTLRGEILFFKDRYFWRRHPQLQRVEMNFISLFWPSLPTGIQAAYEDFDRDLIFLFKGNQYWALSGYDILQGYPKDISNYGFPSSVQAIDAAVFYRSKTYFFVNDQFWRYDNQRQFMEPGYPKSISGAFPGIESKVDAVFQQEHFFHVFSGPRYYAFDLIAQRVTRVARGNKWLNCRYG
72 kDa type IV collagenase, sequence (P08253 whole entry): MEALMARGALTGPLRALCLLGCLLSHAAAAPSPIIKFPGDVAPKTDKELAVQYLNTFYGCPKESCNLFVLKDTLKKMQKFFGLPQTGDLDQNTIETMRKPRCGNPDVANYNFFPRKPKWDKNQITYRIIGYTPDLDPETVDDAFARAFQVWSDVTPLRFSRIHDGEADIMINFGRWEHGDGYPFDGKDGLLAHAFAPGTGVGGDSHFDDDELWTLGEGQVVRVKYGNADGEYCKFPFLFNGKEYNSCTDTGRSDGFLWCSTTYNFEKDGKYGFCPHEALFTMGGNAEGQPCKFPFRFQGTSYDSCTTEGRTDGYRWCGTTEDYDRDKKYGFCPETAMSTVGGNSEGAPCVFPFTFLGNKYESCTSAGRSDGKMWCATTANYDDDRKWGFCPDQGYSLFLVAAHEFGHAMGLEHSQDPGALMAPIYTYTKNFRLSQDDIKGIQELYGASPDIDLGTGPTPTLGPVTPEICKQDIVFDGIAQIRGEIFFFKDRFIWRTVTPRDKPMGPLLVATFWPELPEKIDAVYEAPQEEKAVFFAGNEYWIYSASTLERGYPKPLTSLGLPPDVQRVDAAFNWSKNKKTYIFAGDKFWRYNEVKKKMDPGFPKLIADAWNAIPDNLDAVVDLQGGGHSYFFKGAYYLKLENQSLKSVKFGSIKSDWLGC

`NC(CCc1ccccc1)P(=O)(O)CC(Cc1ccccc1)C(=O)O` (stereo not given): the inhibition constant (Ki) (usually the equilibrium dissociation constant of an inhibitor or competing ligand from its target) in assay [1] is 302 nM; on Leucine aminopeptidase, 13 nM.
With `CC[N+]1=C(/C=C/C=C/C=C2/N(CCCCCC(=O)NCCCOCCOCCOCCCNC(=O)[C@H](CCC(=O)O)NC(=O)[C@H](C)NC(=O)[C@H](Cc3cc(-c4ccc(-c5cccc(Cl)c5)cc4)no3)CP(=O)(O)c3ccc(Br)cc3)c3ccc4c(S(=O)(=O)O)cc(S(=O)(=O)O)cc4c3C2(C)C)C(C)(C)c2c1ccc1c(S(=O)(=O)[O-])cc(S(=O)(=O)O)cc21`, the Ki in assay [2] came to 0.9 nM.
Turning to `[3H]CC([3H])C(=O)NCCCOCCOCCOCCCNC(=O)[C@H](CO)NC(=O)[C@H](CC)NC(=O)[C@H](Cc1cc(-c2ccc(C3(C(F)(F)F)N=N3)cc2)no1)CP(=O)(O)c1ccccc1` (stereo not given in full), the Ki on Neutrophil collagenase amounted to 0.6 nM; in assay [3], 1 nM; in assay [4], 0.5 nM; at Collagenase 3 it was 1.6 nM; in [5] it was 2.6 nM.
As for `CC(=O)N1CCC(CP(=O)(O)[C@H](C)N)(C(=O)N[C@@H](C)C(=O)O)CC1`, the Ki in assay [6] worked out at 5.3 nM.
The same measure, in the same setting: to `C[C@H](NC(=O)C1(CP(=O)(O)[C@H](C)N)CCCC1)C(=O)O` belongs 4.6 nM.
Molecule `C[C@H](NC(=O)[C@H](Cc1cc(-c2ccc(-c3cccc(Cl)c3)cc2)no1)CP(=O)(O)c1ccc(Br)cc1)C(=O)N[C@@H](CCC(=O)O)C(N)=O` yielded a Ki in [2] of 0.26 nM.
In [7], `CC(=O)N[C@H](CCP(=O)(O)CC(CCC[C@@H](N)C(=O)O)C(=O)O)C(=O)O` (stereo not given in full) yielded a Ki of 1500 nM.
For `NC(CCc1ccccc1)P(=O)(O)CC(Cc1ccc(O)cc1)C(=O)O` (stereo not given), the Ki in assay [1] came out at 54 nM; at Leucine aminopeptidase it was 10 nM; in assay [8], 232 nM.

Source of the values: ChEMBL document CHEMBL4316613, “Recent developments in the synthesis and applications of phosphinic peptide analogs” (Bioorg Med Chem Lett, 2019).
